From the NIST ThermoML archive (doi:10.1021/je0342522)
Numbers after ± are expanded uncertainties. Each block holds one molecule with its values, some of them ahead of it.

Key:
[1] = Liquid
[2] = excess molar enthalpy (molar enthalpy of mixing); xn = mol fraction of the nth substance listed; details: 323.15 K, 4100 kPa, Liquid, Flow calorimetry

vapor or sublimation pressure ([1]; 333.15 K): 0.22 ± 0.04 kPa
vapor or sublimation pressure ([1]; 353.15 K): 0.77 ± 0.05 kPa
Compound: OCCO [1,2-ethanediol]

vapor or sublimation pressure ([1]; 323.27 K): 0.34 ± 0.042 kPa
Compound: CC(=O)c1ccccc1 [acetophenone]

vapor or sublimation pressure ([1]; 323.27 K): 2058.9 ± 14 kPa
Compound: C=CC [propene]

excess molar enthalpy ([2]; x1 = 0.0702): 0.0129 ± 0.000478 kcal/mol
excess molar enthalpy ([2]; x1 = 0.1375): 0.0251 ± 0.000717 kcal/mol
excess molar enthalpy ([2]; x1 = 0.202): 0.0354 ± 0.000717 kcal/mol
excess molar enthalpy ([2]; x1 = 0.264): 0.0449 ± 0.000956 kcal/mol
excess molar enthalpy ([2]; x1 = 0.3235): 0.0509 ± 0.0012 kcal/mol
excess molar enthalpy ([2]; x1 = 0.4086): 0.0574 ± 0.0012 kcal/mol
excess molar enthalpy ([2]; x1 = 0.4889): 0.0598 ± 0.00143 kcal/mol
excess molar enthalpy ([2]; x1 = 0.5893): 0.0588 ± 0.00143 kcal/mol
excess molar enthalpy ([2]; x1 = 0.6828): 0.0521 ± 0.0012 kcal/mol
excess molar enthalpy ([2]; x1 = 0.7487): 0.044 ± 0.000956 kcal/mol
excess molar enthalpy ([2]; x1 = 0.8115): 0.0339 ± 0.000717 kcal/mol
excess molar enthalpy ([2]; x1 = 0.8516): 0.027 ± 0.000717 kcal/mol
excess molar enthalpy ([2]; x1 = 0.8905): 0.0196 ± 0.000478 kcal/mol
excess molar enthalpy ([2]; x1 = 0.9281): 0.0124 ± 0.000478 kcal/mol
excess molar enthalpy ([2]; x1 = 0.9646): 0.00598 ± 0.000239 kcal/mol
Compound: C=CC [propene] + CC(=O)c1ccccc1

vapor or sublimation pressure ([1]; 333.15 K): 19.93 ± 0.17 kPa
vapor or sublimation pressure ([1]; 353.15 K): 47.44 ± 0.35 kPa
Compound: O [water]
